Assays:
RORγt [1] = biological target: T1, RORγt (Homo sapiens, UniProt P51449); experiment: Jurkat reporter test (human IL-17 ROR response element luciferase, RORγt vector); assay type: cell-based; conditions: Jurkat, test compound 3 μM; Jurkat cells; read-out: luminescence level inhibitory rate at test compound 3 μM
T1 sequence (P51449 1-497 isoform P51449-2): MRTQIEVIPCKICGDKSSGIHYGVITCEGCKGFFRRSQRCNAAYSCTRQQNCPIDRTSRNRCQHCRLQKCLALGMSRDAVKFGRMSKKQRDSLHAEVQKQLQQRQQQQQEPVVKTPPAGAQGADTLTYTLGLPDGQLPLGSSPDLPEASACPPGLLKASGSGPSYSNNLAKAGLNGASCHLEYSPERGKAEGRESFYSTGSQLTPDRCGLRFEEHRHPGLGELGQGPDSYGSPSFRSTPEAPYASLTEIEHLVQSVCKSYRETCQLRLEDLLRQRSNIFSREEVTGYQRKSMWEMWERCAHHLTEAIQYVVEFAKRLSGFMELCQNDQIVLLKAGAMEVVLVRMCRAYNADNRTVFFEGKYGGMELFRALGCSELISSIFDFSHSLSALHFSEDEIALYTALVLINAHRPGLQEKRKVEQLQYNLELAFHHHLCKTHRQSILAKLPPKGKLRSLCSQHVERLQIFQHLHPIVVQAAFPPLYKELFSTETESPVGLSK
Method in brief: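 Luminescence (Bright-Glo, 10 min, RT) was measured after overnight compound treatment of electroporated Jurkat cells (1350 V, 10 ms interval, 3 pulses). The reaction medium was RPMI with 10% lipid-reduced FCS, 10 mM HEPES (pH 7.5) and 5 μM lovastatin.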

RORγt [2] = biological target: T1, RORγt; experiment: RORγt binding test using fluorescent-labeled synthetic ligand (TR-FRET); conditions: test compound 1 μM; read-out: binding inhibitory rate of fluorescent-labeled synthetic ligand to RORγt at test compound 1 μM
[3] = test system: IL-23-induced mouse psoriasis model; experiment: IL-23-induced mouse psoriasis model; assay type: in vivo; conditions: Balb/c mice, versus the negative control group; for percent inhibition of IL-17A expression: ear tissue
Protocol: Effect in an IL-23-Induced Mouse Psoriasis Model
Mouse IL-23 (500 ng/15 μL, R&D) or PBS (15 μL, negative control group) was administered intradermally in the ear of Balb/c mice (Charles River Japan, male, 7 weeks old) 5 times every other days. Seven hr after IL-23 administration at 8 days after the initial administration (final administration), the mice were anesthetized with isoflurane, and ear thickness was measured with calipers. After the ear thickness was measured, the ear was resected, tissue 8 mm in diameter was punched from an area centering on the IL-23 injection site, and the tissue was weighed. The punched ear tissue was cut in half, and one half was immersion-fixed in 10% neutral buffer formalin solution for use in histopathological evaluation. The other half was immersed in RNAlater (QIAGEN) for at least 18 hr for use in an evaluation of the IL-17A mRNA expression level. The test compound was suspended in 0.5% methylcellulose and administered orally twice daily on consecutive days from 30 min before the initial IL-23 administration to 30 min before the final IL-23 administration.
The change in ear thickness in this model was evaluated by calculating the difference in measured thickness between before IL-23 administration and 7 hr after the final IL-23 administration. In addition, the formalin-fixed tissue was embedded and sectioned, then stained with hematoxylin-eosin. The degree of acanthosis was then evaluated qualitatively by microscopy (classified with a score of 0 to 4). RNA extraction from the ear tissue and quantitative PCR were performed as follows. As described above, ear tissue treated with RNAlater (QIAGEN) was homogenized in 350 μL of RLT buffer (RNeasy mini kit, QIAGEN) and treated (55° C., 10 min) with Proteinase K (QIAGEN). Total RNA was then extracted according to the RNeasy mini kit protocol. The RNA thus obtained was reverse transcribed into cDNA using the High-Capacity RNA-to-cDNA kit (Applied Biosystems), and the expression of each gene was measured by real-time PCR (Viia7™, Applied Biosystems). The PCR buffer used was TaqMan Fast Advanced Master Mix (Applied Biosystems), and TaqMan Gene Expression Assays (Applied Biosystems) Mm00439618_m1 (IL-17A) and 4352341E (β-actin) were used to detect the genes. The IL-17A gene expression level was normalized to the β-actin gene expression level, and the percent inhibition of IL-17A gene expression with the test compound was then calculated.
The results (percent inhibition of ear thickness, acanthosis score and IL-17A gene expression with oral administration of the test compound) measured by the above-mentioned method are shown in Table 10.

RORγt [4] = biological target: T1, RORγt; experiment: Cofactor recruitment test (Alpha Screen, biotinylated SRC-1 peptide); assay type: biochemical; conditions: test compound 1 μM; read-out: signal value inhibitory rate at test compound 1 μM
Protocol: Cofactor Recruitment Test
Cofactor recruitment test was performed by Alpha Screen (Histidine Detection Kit, PerkinElmer) method. First, a test compound was diluted with an assay buffer (50 mM Tris-HCl (pH 7.5), 50 mM KCl, 1 mM DTT, 0.1% BSA) and added to a 384 well plate by 5 μL. […] The mixture was stood in a dark place for 1 hr, and the signal value was measured by Envision (PerkinElmer).

[5] = test system: IL-17 production in human blood; experiment: Effect on IL-17 production in human blood; assay type: cell-based; conditions: 72 h; 10 μM test compound; human peripheral blood, IL-23 and Dynabeads stimulation, 3 days; read-out: percent inhibition at 10 μM (IL-17 production)
Protocol: Effect on IL-17 Production in Human Blood
The inhibitory effect of the test compound on IL-17 production in human blood was evaluated as follows. First, 150 μL of peripheral blood collected from healthy individuals using heparinized vacuum blood collection tubes was dispensed into each well of a 96-well plate (Corning), and 45 μL of RPMI 1640 medium (Gibco) containing 10% fetal bovine serum (FBS, Hyclone) and 30 μL of the test compound diluted with the medium were added to each well. The plate was then cultured for 30 min at 37° C. The cells were subsequently stimulated by adding 30 μL of 100 ng/mL human IL-23 (R&D) and 45 μL of Dynabeads Human (Invitrogen) to each well and culturing the plate for 3 days at 37° C. In wells without stimulation, 75 μL of RPMI 1640 medium containing 10% FBS was added instead of the IL-23 and Dynabeads solution. After culturing for 3 days, the culture supernatant was collected, and the amount of IL-17 in the supernatant was measured using an IL-17 ELISA kit (R&D).
The results (percent inhibition of IL-17 production with 10 μM of the test compound) measured by the above-mentioned method are shown in Table 8.

IL-17A gene expression = experiment: Effect on IL-23-induced cytokine expression in mice; assay type: in vivo, mouse; conditions: 10 mg/kg oral, 30 min before and 8 hr after IL-23; ear of Balb/c mice; versus the negative control group
Protocol: Effect on IL-23-Induced Cytokine Expression in Mice
A mouse IL-23 solution (500 ng/10 μL, prepared by Takeda Pharmaceutical Company Limited) or PBS (10 μL, negative control group) was administered intradermally in the ear of Balb/c mice (Charles River Japan, male, 7 weeks old). Twenty-four hr after administration, the ear was resected under isoflurane anesthesia. The test compound was suspended in 0.5% methylcellulose and administered orally 30 min before and 8 hr after IL-23 administration.
RNA extraction from the ear tissue and quantitative PCR were performed as follows. Specifically, ear tissue 5 mm in diameter was punched from an area of the resected ear centering on the IL-23 injection site, and the tissue was immersed in RNAlater (QIAGEN) for at least 18 hr. The RNAlater-treated ear tissue was homogenized in 350 μL of RLT buffer (RNeasy mini kit, QIAGEN) and treated (55° C., 10 min) with Proteinase K (QIAGEN). Total RNA was then extracted according to the RNeasy mini kit protocol. The RNA thus obtained was then reverse transcribed into cDNA using the High-Capacity RNA-to-cDNA kit (Applied Biosystems), and the amount of each gene expressions was measured by real-time PCR (Viia7™, Applied Biosystems). The PCR buffer used was TaqMan Fast Advanced Master Mix (Applied Biosystems), and TaqMan Gene Expression Assays (Applied Biosystems) Mm00439618_m1 (IL-17A) and 4352341E (β-actin) were used for each gene detection. The IL-17A gene expression level was normalized to the β-actin gene expression level, and the percent inhibition of IL-17A gene expression with the test compound was then calculated.
The results (percent inhibition of IL-17A gene expression with oral administration of the test compound) measured by the above-mentioned method are shown in Table 9.

COc1ccc2c(n1)CCN(C(=O)[C@H]1C[C@@H]1CC(=O)O)[C@H]2C(=O)Nc1cc(F)c2c(c1)CCC2(C)C [Example 6, ((1R,2S)-2-(((5R)-5-((7-fluoro-1,1-dimethyl-2,3-dihydro-1H-inden-5-yl)carbamoyl)-2-methoxy-7,8-dihydro-1,6-naphthyridin-6(5H)-yl)carbonyl)cyclopropyl)acetic acid]
inhibition at 3 µM (RORγt [1]): 97%
inhibition at 1 µM (RORγt [2]): 102%
percent inhibition of acanthosis score ([3]; 10 mg/kg oral twice daily): 39%
percent inhibition of ear thickness ([3]; 10 mg/kg oral twice daily): 64%
percent inhibition of IL-17A expression ([3]; 10 mg/kg oral twice daily): 111%
inhibition at 1 µM (RORγt [4]): 54%
inhibition at 10 µM [5]: 86.6%

COCc1ccc2c(c1)CCN(C(=O)[C@H]1C[C@@H](CC(=O)O)C1)[C@H]2C(=O)Nc1cc(F)c2c(c1)CCC2(C)C [Example 19, (cis-3-(((1R)-1-((7-fluoro-1,1-dimethyl-2,3-dihydro-1H-inden-5-yl)carbamoyl)-6-(methoxymethyl)-3,4-dihydroisoquinolin-2(1H)-yl)carbonyl)cyclobutyl)acetic acid]
inhibition at 3 µM (RORγt [1]): 99%
inhibition at 1 µM (RORγt [2]): 101%
percent inhibition of acanthosis score ([3]; 10 mg/kg oral twice daily): 29%
percent inhibition of ear thickness ([3]; 10 mg/kg oral twice daily): 40%
percent inhibition of IL-17A expression ([3]; 10 mg/kg oral twice daily): 94%
inhibition at 1 µM (RORγt [4]): 82%
inhibition at 10 µM [5]: 94.1%

COc1ccc2c(n1)CCN(C(=O)[C@H]1C[C@@H](C(=O)O)C1)[C@H]2C(=O)Nc1cc(F)c2c(c1)CCC2(C)C [Example 10, cis-3-(((5R)-5-((7-fluoro-1,1-dimethyl-2,3-dihydro-1H-inden-5-yl)carbamoyl)-2-methoxy-7,8-dihydro-1,6-naphthyridin-6(5H)-yl)carbonyl)cyclobutanecarboxylic acid]
percent inhibition of IL-17A gene expression (IL-17A gene expression): 87%
percent inhibition of acanthosis score ([3]; 1 mg/kg oral twice daily): 47%
percent inhibition of ear thickness ([3]; 1 mg/kg oral twice daily): 52%
percent inhibition of IL-17A expression ([3]; 1 mg/kg oral twice daily): 91%
inhibition at 10 µM [5]: 89.7%

From patent publication US10093629B2, “Heterocyclic compounds and their use as retinoid-related orphan receptor (ROR) gamma-T inhibitors” (Takeda Pharmaceutical Company Limited, priority 2014, dated 2018)
